# Patent publication US5801149A, “Inhibition of signal transduction molecules” (Joslin D-abetes Center, Inc., priority 1995, dated 1998)
# Non-standard residues stand in square brackets, D forms with d. Residues, ends and D or L forms follow the SMILES beside them. No end group written: not given here. Pmp = N[C@@H](Cc1ccc(CP(=O)(O)O)cc1)C(=O)O; dPmp = N[C@H](Cc1ccc(CP(=O)(O)O)cc1)C(=O)O; pY = N[C@@H](Cc1ccc(OP(=O)(O)O)cc1)C(=O)O
# Target: T1, N-terminal p85 SH2/GST fusion protein (Homo sapiens, UniProt P27986)
# T1 construct: N-terminal p85 SH2/GST fusion proteins (100 nM)
# Assay: biochemical
# Type: binding
# Conditions: not given
# Method: Peptide Binding to Isolated Glutathione S-Transferase/SH2 Domain Fusion Proteins was determined as follows. N-terminal p85 SH2/GST fusion proteins (100 nM) (Hu et al., 1992, Mol. Cell. Biol. 12:981-990), 35 fmol of HPLC-purified, [^125 I]Bolton-Hunter-treated phosphopeptide (67 nCi) and varying concentrations of unlabeled peptides were combined in 200 μl total volume of 20 mM tris-HCl, 250 mM NaCl, 0.1% bovine serum albumin, 10 mM dithiothreitol, pH 7.4. Glutathione-agarose (25 μl of a 1:4 aqueous slurry, Molecular Probes) was added and the samples were incubated at 22° C. for 4 h. Following centrifugation for 5 min at 12,000×g, supernatant solutions were removed by aspiration and [^125 I]radioactivity associated with the pellets was determined with a […].
# Phosphopeptide and phosphonopeptide binding to p85 SH2 domains. To investigate the mechanism of phosphonopeptide inhibition of association direct binding to an isolated SH2 domain of the p85 of PI 3-kinase was analyzed. In the assay, tracer amounts of [^125 I]-labeled phosphopeptide, SH2 domain/GST fusion protein, and varying concentrations of unlabeled peptides were incubated together along with glutathione-agarose. […] ID50 values were determined as the concentration of unlabeled peptide required to inhibit 50% of specific [^125 I]phosphopeptide binding. […]
# T1 sequence (P27986 333-428 limits assumed): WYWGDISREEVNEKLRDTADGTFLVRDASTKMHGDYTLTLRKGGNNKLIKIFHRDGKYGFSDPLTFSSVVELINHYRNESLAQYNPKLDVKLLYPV
row,Compound,IC50 [µM]
1,CSCC[C@H](NC(=O)[C@@H]1CCCN1C(=O)[C@H](CCSC)NC(=O)[C@H](Cc1ccc(CP(=O)(O)O)cc1)NC(=O)[C@H](CCC(=O)O)NC(=O)[C@H](CCC(=O)O)NC(=O)[C@@H](N)CCC(=O)O)C(=O)N[C@@H](CCC(=O)O)C(=O)N[C@@H](CC(=O)O)C(=O)N[C@@H](CC(C)C)C(=O)N[C@@H](Cc1ccc(O)cc1)C(=O)O [L-mT-Pmp315] (H-EEE[Pmp]MPMEDLY-OH),7.2
2,CSCC[C@H](NC(=O)[C@@H]1CCCN1C(=O)[C@H](CCSC)NC(=O)[C@@H](Cc1ccc(CP(=O)(O)O)cc1)NC(=O)[C@H](CCC(=O)O)NC(=O)[C@H](CCC(=O)O)NC(=O)[C@@H](N)CCC(=O)O)C(=O)N[C@@H](CCC(=O)O)C(=O)N[C@@H](CC(=O)O)C(=O)N[C@@H](CC(C)C)C(=O)N[C@@H](Cc1ccc(O)cc1)C(=O)O [D-mT-Pmp315] (H-EEE[dPmp]MPMEDLY-OH),131

# Test system: IRS-1/PI 3-kinase association
# Assay: Inhibition of association of PI 3-kinase activity (CHO cell extract) with immobilized phosphorylated IRS-1
# Type: biochemical
# Conditions: dose-response studies
# Method: Inhibiting interactions between IRS-1 and PI 3-kinase IRS-1 produced in a baculovirus expression system was adsorbed to anti-peptide (IRS-1) antibodies and phosphorylated by solubilized insulin receptors (which were then washed away). […] After incubation and additional washing, PI 3-kinase activity associated with the immobilized IRS-1 was determined as described, Auger et al. PI 3-kinase activity associated with IRS-1 only after phosphorylation by the insulin receptor. Various peptides were added during incubation of immobilized IRS-1 with the ChO cell extract (PI 3-kinase) to determine their ability to block association. Concentration dependent effects of phosphorylated vs. unphosphorylated middle T and IRS-1 […] YMXM sequences were determined. […] A detailed study of these effects is a major target of this proposal.
row,Compound,ED50 for inhibition of IRS-1/PI 3-kinase association [µM]
1,"pY628: phosphorylated form of IRS-1 YMXM sequence Y628 (SEQ ID NO: 26, Table 1) (RKGNGDG[pY]MPMSPKSV)",≤ 0.05

# Target: T2, Rat PTPase 1B (Rattus norvegicus, UniProt P20417)
# T2 construct: cloning the full-length cDNA into the bacterial expression vector, PKK233-2; made in house; host or cells: bacteria (vector PKK233-2)
# T2 sequence (P20417 1-432): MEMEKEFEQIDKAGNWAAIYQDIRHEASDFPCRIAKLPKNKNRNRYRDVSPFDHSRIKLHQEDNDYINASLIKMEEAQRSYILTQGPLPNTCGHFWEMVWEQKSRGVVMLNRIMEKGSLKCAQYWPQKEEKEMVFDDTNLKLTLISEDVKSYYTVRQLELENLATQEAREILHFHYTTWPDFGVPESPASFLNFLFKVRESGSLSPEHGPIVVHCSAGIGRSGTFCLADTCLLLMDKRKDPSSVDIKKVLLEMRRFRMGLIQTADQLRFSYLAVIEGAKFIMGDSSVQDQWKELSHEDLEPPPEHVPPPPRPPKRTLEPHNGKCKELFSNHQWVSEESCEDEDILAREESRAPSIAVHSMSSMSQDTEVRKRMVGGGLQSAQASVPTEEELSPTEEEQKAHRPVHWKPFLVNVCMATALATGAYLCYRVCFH
# Assay: PTPase 1B peptide dephosphorylation (Km) and inhibition (Ki)
# Type: biochemical
# Conditions: Pmp and Pmp-peptides as inhibitors
# Method: The phosphopeptides were used as substrates of PTPase 1B, a single catalytic domain PTPase with a […] tissue distribution (Hunter et al., 1989, cell 58:1013). Rat PTPase 1B (Guan et al., 1990, Proc. Natl., Acad. Sci. USA 87:1501) was obtained by PCR and cloning the full-length cDNA into the bacterial expression vector, PKK233-2.
# Sequence specificity for peptide dephosphorylation was observed, with apparent Km values ranging from <2 μM for the phospho-middle t sequence to >2 mM for pTyr itself (Table 3).
# Several phosphono peptides were tested for the ability to inhibit PTPase 1B activity and KI values determined by methods known to those skilled in the art.
row,Compound,Ki [µM]
1,"RDIPmpETDPmpPmpRK [IR1155-1165(D,L-Pmp3)]",< 2
2,"CC[C@H](C)[C@H](NC(=O)[C@H](CC(=O)O)NC(=O)[C@@H](N)CCCNC(=N)N)C(=O)N[C@@H](Cc1ccc(CP(=O)(O)O)cc1)C(=O)N[C@@H](CCC(=O)O)C(=O)N[C@H](C(=O)N[C@@H](CC(=O)O)C(=O)N[C@@H](Cc1ccc(O)cc1)C(=O)N[C@@H](Cc1ccc(O)cc1)C(=O)N[C@@H](CCCNC(=N)N)C(=O)N[C@@H](CCCCN)C(=O)O)[C@@H](C)O [IR1155-1165(L-Pmp1158), RDI[L-Pmp]ETDYYRK] (H-RDI[Pmp]ETDYYRK-OH; N-terminus assumed)",30
3,"CC[C@H](C)[C@H](NC(=O)[C@H](CC(=O)O)NC(=O)[C@@H](N)CCCNC(=N)N)C(=O)N[C@H](Cc1ccc(CP(=O)(O)O)cc1)C(=O)N[C@@H](CCC(=O)O)C(=O)N[C@H](C(=O)N[C@@H](CC(=O)O)C(=O)N[C@@H](Cc1ccc(O)cc1)C(=O)N[C@@H](Cc1ccc(O)cc1)C(=O)N[C@@H](CCCNC(=N)N)C(=O)N[C@@H](CCCCN)C(=O)O)[C@@H](C)O [IR1155-1165(d-Pmp1158), RDI[D-Pmp]ETDYYRK] (H-RDI[dPmp]ETDYYRK-OH; N-terminus assumed)",30

# Same assay, conditions: apparent Km, phosphotyrosine and pY-peptides as substrates
row,Compound,Km [µM]
1,"CC[C@H](C)[C@H](NC(=O)[C@H](CCC(N)=O)NC(=O)[C@@H]1CCCN1C(=O)[C@H](C)NC(=O)[C@H](CCSC)NC(=O)[C@@H]1CCCN1C(=O)[C@H](CCSC)NC(=O)[C@H](Cc1ccc(OP(=O)(O)O)cc1)NC(=O)[C@H](CCC(=O)O)NC(=O)[C@H](CC(N)=O)NC(=O)[C@H](CCC(=O)O)NC(=O)[C@@H](N)CCCNC(=N)N)C(=O)N[C@@H](Cc1c[nH]cn1)C(=O)O [middle t(pY298), RENEpYMPMAPQIH] (H-RENE[pY]MPMAPQIH-OH)",< 2
2,"CC[C@H](C)[C@H](NC(=O)[C@H](CC(=O)O)NC(=O)[C@@H](N)CCCNC(=N)N)C(=O)N[C@@H](Cc1ccc(O)cc1)C(=O)N[C@@H](CCC(=O)O)C(=O)N[C@H](C(=O)N[C@@H](CC(=O)O)C(=O)N[C@@H](Cc1ccc(OP(=O)(O)O)cc1)C(=O)N[C@@H](Cc1ccc(O)cc1)C(=O)N[C@@H](CCCNC(=N)N)C(=O)N[C@@H](CCCCN)C(=O)O)[C@@H](C)O [IR1155-1165(pY1162), RDIYETDpYYRK] (H-RDIYETD[pY]YRK-OH)",40
3,"CC[C@H](C)[C@H](NC(=O)[C@H](CC(=O)O)NC(=O)[C@@H](N)CCCNC(=N)N)C(=O)N[C@@H](Cc1ccc(OP(=O)(O)O)cc1)C(=O)N[C@@H](CCC(=O)O)C(=O)N[C@H](C(=O)N[C@@H](CC(=O)O)C(=O)N[C@@H](Cc1ccc(O)cc1)C(=O)N[C@@H](Cc1ccc(O)cc1)C(=O)N[C@@H](CCCNC(=N)N)C(=O)N[C@@H](CCCCN)C(=O)O)[C@@H](C)O [1R1155-1165(pY1158), RDIpYETDYYRK] (H-RDI[pY]ETDYYRK-OH)",30

# The next lines start with the values.
row,Km [µM],Compound
1,8,"CC[C@H](C)[C@H](NC(=O)[C@H](CO)NC(=O)[C@H](CCC(=O)O)NC(=O)[C@H](CC(=O)O)NC(=O)[C@@H](N)CCCCN)C(=O)N[C@@H](CC(=O)O)C(=O)N[C@@H](Cc1ccc(OP(=O)(O)O)cc1)C(=O)N[C@H](C(=O)N1CCC[C@H]1C(=O)N[C@@H](CCSC)C(=O)N[C@@H](CC(C)C)C(=O)N[C@@H](CC(=O)O)C(=O)N[C@@H](CCSC)C(=O)N[C@@H](CCCCN)C(=O)NCC(=O)N[C@@H](CC(=O)O)C(=O)O)C(C)C [mPDGF-Rβ(pY719), KDESIDpYVPMLDMKGD] (H-KDESID[pY]VPMLDMKGD-OH)"
2,30,"CC[C@H](C)[C@H](NC(=O)[C@H](CC(=O)O)NC(=O)[C@@H](N)CCCNC(=N)N)C(=O)N[C@@H](Cc1ccc(O)cc1)C(=O)N[C@@H](CCC(=O)O)C(=O)N[C@H](C(=O)N[C@@H](CC(=O)O)C(=O)N[C@@H](Cc1ccc(O)cc1)C(=O)N[C@@H](Cc1ccc(OP(=O)(O)O)cc1)C(=O)N[C@@H](CCCNC(=N)N)C(=O)N[C@@H](CCCCN)C(=O)O)[C@@H](C)O [IR1155-1165(pY1163), RDIYETDYpYRK] (H-RDIYETDY[pY]RK-OH)"
3,8,"C[C@@H](O)[C@H](N)C(=O)N[C@@H](CCC(=O)O)C(=O)N1CCC[C@H]1C(=O)N[C@@H](CCC(=O)O)C(=O)N[C@@H](Cc1ccc(OP(=O)(O)O)cc1)C(=O)N[C@@H](CCC(N)=O)C(=O)N1CCC[C@H]1C(=O)NCC(=O)N[C@@H](CCC(=O)O)C(=O)O [pp60^c-src (pYS27), TEPEpYQPGE] (H-TEPE[pY]QPGE-OH)"
4,30,"CSCC[C@H](NC(=O)[C@@H]1CCCN1C(=O)[C@H](CCSC)NC(=O)[C@H](Cc1ccc(OP(=O)(O)O)cc1)NC(=O)CNC(=O)[C@H](CC(=O)O)NC(=O)[C@H](CC(=O)O)NC(=O)[C@@H](N)[C@@H](C)O)C(=O)N[C@@H](CO)C(=O)N1CCC[C@H]1C(=O)NCC(=O)N[C@H](C(=O)O)C(C)C [IRS-1(pY608), TDDGpYMPMSPGV] (H-TDDG[pY]MPMSPGV-OH)"
5,100,"CSCC[C@H](NC(=O)[C@@H]1CCCN1C(=O)[C@H](CCSC)NC(=O)[C@H](Cc1ccc(OP(=O)(O)O)cc1)NC(=O)[C@H](CC(=O)O)NC(=O)CNC(=O)[C@H](CC(N)=O)NC(=O)CN)C(=O)N[C@@H](CO)C(=O)N1CCC[C@H]1C(=O)N[C@@H](CCCCN)C(=O)N[C@@H](CO)C(=O)O [IRS-1(pY628), GNGDpYMPMSPKS] (H-GNGD[pY]MPMSPKS-OH)"

# Target: T3, p85 SH2 domains (SH2/GST fusion protein) (Homo sapiens, UniProt P27986)
# T3 construct: GST
# Assay: Biospecific interaction analysis of binding to p85 SH2 domains
# Conditions: isolated SH2 domains of PI 3-kinase p85; overview statement
# Method: Therefore, mT-pY315 binding to p85 SH2 domains was analyzed using biospecific interaction analysis as previously described to obtain a more accurate estimate for KD. Series of data were obtained during real-time binding experiments with different concentrations of SH2/GST fusion protein (data not shown).
# T3 sequence (P27986 333-428 limits assumed): as the sequence (P27986 333-428 limits assumed) above
row,Compound,Kd [µM]
1,CSCC[C@H](NC(=O)[C@@H]1CCCN1C(=O)[C@H](CCSC)NC(=O)[C@H](Cc1ccc(CP(=O)(O)O)cc1)NC(=O)[C@H](CCC(=O)O)NC(=O)[C@H](CCC(=O)O)NC(=O)[C@@H](N)CCC(=O)O)C(=O)N[C@@H](CCC(=O)O)C(=O)N[C@@H](CC(=O)O)C(=O)N[C@@H](CC(C)C)C(=O)N[C@@H](Cc1ccc(O)cc1)C(=O)O [L-mT-Pmp315] (H-EEE[Pmp]MPMEDLY-OH),0.01 to 0.02
